The source of these data is patent publication US4454126A, “Phosphoramide derivatives and medicines containing the same” (priority 1981, dated 1984).

Molecules are shown by their SMILES.

One series has as its target T1, Jack bean urease (Canavalia ensiformis, UniProt P07374).
T1 construct: Urease extracted from Jack beans and then purified; from tissue; host or cells: Jack beans
Description: Urease inhibition effects - Jack bean urease. It counts as biochemical, Jack beans. The following applies: read-out: 50% Urease inhibition conc. I50. As to the method: (§1) Urease extracted from Jack beans and then purified and urease produced by Proteus mirabilis were used. The molar concentration of the test compound that inhibited 50% of the urease present was determined by the method of Kobashi et al, Biochim. Biophys. Acta, 227, 429-441 (1971), and the method of Okuda et al, Saishin Igaku (The Latest Medical Science) 21(3), 622-627 (1966).

For series [1], the target named is T2, urease produced by Proteus mirabilis (Proteus mirabilis, UniProt P17086).
T2 construct: intact Proteus mirabilis cells and cell-free preparation
T2 sequence (P17086 whole entry): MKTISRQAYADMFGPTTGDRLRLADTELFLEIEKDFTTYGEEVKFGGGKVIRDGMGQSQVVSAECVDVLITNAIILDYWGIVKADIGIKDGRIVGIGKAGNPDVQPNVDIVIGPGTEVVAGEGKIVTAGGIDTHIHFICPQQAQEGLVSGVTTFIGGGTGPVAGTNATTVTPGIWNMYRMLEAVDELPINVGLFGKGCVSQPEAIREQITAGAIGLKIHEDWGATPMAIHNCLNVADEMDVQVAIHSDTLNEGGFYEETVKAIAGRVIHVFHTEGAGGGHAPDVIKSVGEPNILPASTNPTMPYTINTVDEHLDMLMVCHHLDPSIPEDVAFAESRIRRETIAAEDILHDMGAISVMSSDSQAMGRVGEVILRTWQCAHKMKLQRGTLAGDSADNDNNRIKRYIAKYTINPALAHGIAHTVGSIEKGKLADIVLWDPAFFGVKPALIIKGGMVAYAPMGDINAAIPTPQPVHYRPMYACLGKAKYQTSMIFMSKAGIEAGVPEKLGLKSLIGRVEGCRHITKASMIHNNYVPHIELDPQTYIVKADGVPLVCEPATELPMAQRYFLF
T2 sequence (P17088 whole entry, further chain): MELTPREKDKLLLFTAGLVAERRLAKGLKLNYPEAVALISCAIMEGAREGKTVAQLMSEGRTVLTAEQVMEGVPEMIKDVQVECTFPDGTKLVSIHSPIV
T2 sequence (P17087 whole entry, further chain): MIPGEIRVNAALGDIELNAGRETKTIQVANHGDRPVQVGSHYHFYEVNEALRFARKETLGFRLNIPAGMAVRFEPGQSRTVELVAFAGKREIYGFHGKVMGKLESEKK
The series is described as follows: Urease inhibition effects - Proteus mirabilis urease, intact cell. The class given is cell-based. The following applies: read-out: 50% Urease inhibition conc. I50. As to the method: as §1

The next series in a line: Acute toxicity. The following applies: peroral; for LD50: rat, in vivo, po, in 0.5% carboxymethylcellulose. The class given is in vivo, S.D. rats. The text has this: Acute toxicities of test compounds were examined by the peroral administration of the test compounds, suspended in 0.5% carboxymethylcellulose, to male and female S.D. rats (8 weeks old).
Series [2] can be described thus: Rate of migration into urine. The following applies: rat, in vivo, po; 50 mg/kg perorally, S.D. rats, urine excreted for 24 hrs; read-out: Rate of migration into urine, Average ± S.E. As to the method:
50 mg/kg of a test compound was administered perorally to S.D. rats weighing around 200 g. The urease-inhibition capacity of urine excreted for 24 hrs. thereafter was measured. The rate of migration into urine of each test compound was determined by the method of Kobashi et al, Yakugaku Zasshi 93(12), 1564-1572 (1973) and J. Biochim. 83, 287-293 (1973).

For series [3], the target named is T2, urease produced by Proteus mirabilis. The series is described as follows: Urease inhibition effects - Proteus mirabilis urease, cell free. The class given is biochemical. The following applies: read-out: 50% Urease inhibition conc. I50. How it is done: as §1
A further series has as its system Proteus mirabilis. Description: Inhibition of the formation of vesical calculi in rats infected with Proteus mirabilis. It counts as in vivo, Female S.D. rats. As to conditions: peroral, five days from four days after inoculation, none: 34.5 ± 2.6 mg. The text has this:
Female S.D. rats weighing about 200 g were inoculated with Proteus mirabilis in their bladders to cause infection. Four days after the inoculation peroral administration of a test compound was begun and the administration was continued for five days. The calculi formed in the bladder in each rat were weighed.

T1 sequence (P07374 whole entry, looked up): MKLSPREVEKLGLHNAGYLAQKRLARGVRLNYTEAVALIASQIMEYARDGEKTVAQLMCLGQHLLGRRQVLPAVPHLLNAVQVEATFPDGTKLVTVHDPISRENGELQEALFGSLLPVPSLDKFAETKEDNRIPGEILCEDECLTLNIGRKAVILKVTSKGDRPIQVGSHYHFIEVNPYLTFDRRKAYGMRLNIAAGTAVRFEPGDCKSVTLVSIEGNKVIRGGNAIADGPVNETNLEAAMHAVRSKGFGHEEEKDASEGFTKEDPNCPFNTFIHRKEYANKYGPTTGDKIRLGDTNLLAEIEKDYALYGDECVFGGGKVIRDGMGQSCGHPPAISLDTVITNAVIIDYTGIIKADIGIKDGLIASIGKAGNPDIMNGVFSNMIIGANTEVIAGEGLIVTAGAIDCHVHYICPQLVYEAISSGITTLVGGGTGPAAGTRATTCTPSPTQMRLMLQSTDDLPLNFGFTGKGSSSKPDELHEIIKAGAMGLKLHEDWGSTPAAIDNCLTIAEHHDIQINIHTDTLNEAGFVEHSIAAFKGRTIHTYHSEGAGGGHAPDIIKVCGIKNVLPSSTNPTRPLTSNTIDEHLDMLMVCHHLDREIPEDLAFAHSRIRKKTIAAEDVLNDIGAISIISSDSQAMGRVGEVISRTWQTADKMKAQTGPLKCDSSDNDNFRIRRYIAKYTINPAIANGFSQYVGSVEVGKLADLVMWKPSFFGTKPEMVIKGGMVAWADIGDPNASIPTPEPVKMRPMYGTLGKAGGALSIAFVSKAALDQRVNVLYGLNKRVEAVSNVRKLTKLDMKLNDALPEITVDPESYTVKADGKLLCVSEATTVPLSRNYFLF

As to `CC(C)CCCC(C)CC(=O)NP(N)(N)=O` (stereo not shown) [Compound D, N-(diaminophosphinyl)-3,7-dimethyloctanamide], the figures for the IC50 (on Jack bean urease; in series [1]) were 870 nM and 14 nM, respectively.
Broadly, the LD50 is the dose at which mortality reaches 50%. Read a low LD50 as a more toxic substance. Consider `CC(C)=CC(=O)NP(N)(N)=O` [Compound A, N-(diaminophosphinyl)-3-methyl-2-butenamide], for which the “Acute toxicity, in words” value in the series “Acute toxicity” (S.D. rats) is recorded as “only a very low toxitity”. For the same compound, the LD50 in “Acute toxicity” (female S.D. rats (8 weeks old)) was above 4240 mg/kg; in “Acute toxicity” (male S.D. rats (8 weeks old)), above 6000 mg/kg. Moreover, the IC50 on Jack bean urease was determined as 630 nM; in series [3], 16 nM; in series [1] it was 18 nM. For the same compound, the dose excreted at 24 h in series [2] was 29.6 ± 2.1%. Also, the “Weight of calculi (Average ± S.E.)” value is reported as 10.7 ± 3.9 mg with Proteus mirabilis (12.5 mg/kg per day) and 10.9 ± 2.8 mg in the series on Proteus mirabilis (50 mg/kg per day).
Take `CC(C)CC(=O)NP(N)(N)=O` [Compound C, N-(diaminophosphinyl)-3-methylbutanamide]: the IC50 on Jack bean urease is 1600 nM; in series [3] it was 61 nM; in series [1] it was 68 nM.
`NP(N)(=O)NC(=O)c1ccccc1` [Control Compound, N-(diaminophosphinyl)benzamide, reference compound]: the results for the IC50 (on Jack bean urease; in series [3]; in series [1]) were 600 nM, 13 nM and 18 nM, respectively. In addition, the dose excreted at 24 h in series [2] is 21 ± 2.7%. In addition, the “Weight of calculi (Average ± S.E.)” value with Proteus mirabilis (12.5 mg/kg per day) was 22.5 ± 4.0 mg.
Turning to `CC(=CC(=O)NP(N)(N)=O)CCCC(C)C` [Compound B, N-(diaminophosphinyl)-3,7-dimethyl-2-octenamide], the IC50 on Jack bean urease stood at 5200 nM; in series [3], 16 nM; in series [1], 15 nM.
